Data as given in patent publication US9272054B2, “Agents for the molecular imaging of serine-protease in human pathologies” (Institut National de la Sante et de la Recherche Medicale …, priority 2010, dated 2016).
Square brackets hold non-standard residues; d marks the D form. Peptide text beside a SMILES is read from it. * marks the point of attachment. DOTA = O=C(O)CN1CCN(CC(=O)O)CCN(CC(=O)*)CCN(CC(=O)O)CC1; DTPA = O=C(O)CN(CCN(CC(=O)O)CC(=O)O)CCN(CC(=O)O)CC(=O)*; CH2Cl = ClC*

Assays:
[1] = target: T1, plasmin from human plasma (Homo sapiens, UniProt P00747); assay: Determination of plasmin activity with fluorescent substrate Suc-Ala-Phe-Lys-AMC; assay type: biochemical; conditions: for % of plasmin activity (mean): 10 nM plasmin, 15 min pre-incubation at room temperature, n=4
T1 construct: plasmin from human plasma (calbiochem); purchased calbiochem; host or cells: human plasma
Protocol: Plasmin with or without inhibitors was incubated at room temperature for 15 min. The fluorescent substrate (40 μM) was added just before reading (λ excitation 390 nm, λ emission 460 nm)
10 nM of plasmin from human plasma (calbiochem) was diluted in Tris-HCl buffer pH 7.4 50 mM, NaCl 100 mM and Tween-20 0.01%. The samples were then incubated or not with the different inhibitors (see below) for 15 minutes at room temperature. Then, the fluorescent substrate (Suc-Ala-Phe-Lys-AMC, […]) was added just before reading (λ excitation 390 nm, λ emission 460 nm) on the Fluoroskan Ascent plate reader (Thermo Fisher). The fluorescence intensity was evaluated every 10 minutes for 2 hours at 37° C.—The integration time for each measure was 20 ms.
Each inhibitor was tested in a range of concentrations from 5 nM up to 1000 nM. All the inhibitors were tested in duplicates for each concentration and 4 independent experiments were performed.
Results are presented as % of active plasmin. The differences between the concentrations of each inhibitor were evaluated by paired t-test using StatView software. Statistical significance was accepted when p<0.05.

plasmin = plasmin (Homo sapiens, UniProt P00747); conditions: competitive inhibitor of plasmin; Chi, 1989; cited from earlier work
[2] = system: localized lesion / thrombus; conditions: rat
From the text: we have used several experimental models of endovascular thrombus formation in rats, which have been already developed for molecular molecular imaging of platelet activation and fibrin formation, including aneurysm of the abdominal aorta {Sarda-Mantel, 2006}, endocarditic vegetations {Rouzet, 2008}. Aneurysm of the aorta was induced by matrix decellularized xenograft in rats {Allaire, 1996}, and endocarditis by left or right ventricle catheterization followed by provoked bacteraemia {Rouzet, 2008} as previously described. These thrombus models were completed by a model of stroke, provoked by cerebral autologous thrombus emboli in rats (reference). […]
Relevant tissues (heart, abdominal aorta, or brain according to the model) were carefully dissected, frozen and cut into transverse sections of 20 μm thickness, which were exposed in a digital radioimager (Instant Imager, Packard, Meriden, USA) for 12 hours. The activity normalized to the region of interest area (mean counts/min/mm^2 corrected for background activity) was determined on autoradiograms. Quantification was performed by calculating the ratio between the activity of the relevant tissue and the activity of a region of interest drawn on either normal myocardium remote from the vegetation in the endocarditis model, supra-renal aorta sample in the AAA model, or the contralateral brain hemisphere in the stroke model. […]

T1 sequence (P00747 581-810 limits assumed): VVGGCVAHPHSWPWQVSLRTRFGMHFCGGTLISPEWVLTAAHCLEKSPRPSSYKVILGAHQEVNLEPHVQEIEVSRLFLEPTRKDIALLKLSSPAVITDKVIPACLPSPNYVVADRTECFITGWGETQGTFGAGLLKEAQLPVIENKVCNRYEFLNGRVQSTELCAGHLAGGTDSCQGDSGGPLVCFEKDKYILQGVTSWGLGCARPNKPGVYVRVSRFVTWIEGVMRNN
T1 sequence (P00747 97-580 partner limits assumed): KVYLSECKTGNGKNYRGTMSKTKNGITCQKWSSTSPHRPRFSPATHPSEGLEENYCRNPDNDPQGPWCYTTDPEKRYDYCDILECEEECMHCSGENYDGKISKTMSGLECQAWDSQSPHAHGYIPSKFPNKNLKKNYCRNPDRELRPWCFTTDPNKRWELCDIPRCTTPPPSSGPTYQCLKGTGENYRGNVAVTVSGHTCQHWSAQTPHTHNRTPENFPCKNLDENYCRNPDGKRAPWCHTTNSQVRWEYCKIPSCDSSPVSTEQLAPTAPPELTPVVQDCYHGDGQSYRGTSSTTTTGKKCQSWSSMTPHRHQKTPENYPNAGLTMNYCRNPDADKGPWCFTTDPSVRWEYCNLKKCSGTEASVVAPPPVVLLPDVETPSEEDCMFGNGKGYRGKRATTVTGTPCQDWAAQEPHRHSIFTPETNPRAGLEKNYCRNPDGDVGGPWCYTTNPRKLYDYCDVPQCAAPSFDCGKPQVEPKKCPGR
plasmin, sequence (P00747 581-810 limits assumed, species assumed): as the sequence (P00747 581-810 limits assumed) above
plasmin, sequence (P00747 97-580 partner limits assumed, species assumed): as the sequence (P00747 97-580 partner limits assumed) above

Row | % of plasmin activity (mean) ([1]; inhibitor 5 nM) | % of plasmin activity (mean) ([1]; inhibitor 10 nM) | % of plasmin activity (mean) ([1]; inhibitor 50 nM) | % of plasmin activity (mean) ([1]; inhibitor 100 nM) | % of plasmin activity (mean) ([1]; inhibitor 500 nM) | % of plasmin activity (mean) ([1]; inhibitor 1000 nM) | inhibitory effect on plasmin activity (in words) ([1]; range 5 nM to 1000 nM) | Molecule | Ki (plasmin) | in vivo uptake by bone marrow [2]
1 | 83.0% | 79.1% | 68.7% | 54.6% | 34.1% | 12.8% | – | CC(C)[C@@H](NC(=O)CNC(=O)CN1CCN(CC(=O)O)CCN(CC(=O)O)CCN(CC(=O)O)CC1)C(=O)N[C@@H](Cc1ccccc1)C(=O)N[C@@H](CCCCN)C(=O)CCl [PL 701, DOTA-G-dV-F—K-cmk] ({DOTA}-G[dV]FK-CH2Cl) | – | –
2 | 102.3% | 123.5% | 122.9% | 113.3% | 112.1% | 107.3% | totally abolished | G-dV-F-A-cmk [PL 702] | – | –
3 | 77.1% | 68.3% | 39.1% | 11.9% | 8.0% | 7.8% | – | D-Val-Phe-Lys-COCH2Cl [VFK, reference compound] | – | –
4 | 56.3% | 46.2% | 27.4% | 16.6% | 4.0% | 1.1% | – | CC(C)[C@@H](NC(=O)CNC(=O)CN(CCN(CCN(CC(=O)O)CC(=O)O)CC(=O)O)CC(=O)O)C(=O)N[C@@H](Cc1ccccc1)C(=O)N[C@@H](CCCCN)C(=O)CCl [PL 704, DTPA-G-dV-F—K-cmk] ({DTPA}-G[dV]FK-CH2Cl) | – | –
5 | 94.9% | 93.6% | 86.1% | 84.1% | 58.4% | 48.4% | – | CC(C)[C@@H](NC(=O)CNC(=O)CN1CCN(CC(=O)O)CCN(CC(=O)O)CCN(CC(=O)O)CC1)C(=O)N[C@@H](Cc1ccccc1)C(=O)N[C@@H](C)C(=O)CCl [PL 703, DOTA-G-dV-F-A-cmk] ({DOTA}-G[dV]FA-CH2Cl) | – | –

The next lines start with the molecule.

Row | Molecule | % of plasmin activity (mean) ([1]; inhibitor 5 nM) | % of plasmin activity (mean) ([1]; inhibitor 10 nM) | % of plasmin activity (mean) ([1]; inhibitor 50 nM) | % of plasmin activity (mean) ([1]; inhibitor 100 nM) | % of plasmin activity (mean) ([1]; inhibitor 500 nM) | % of plasmin activity (mean) ([1]; inhibitor 1000 nM) | inhibitory effect on plasmin activity (in words) ([1]; range 5 nM to 1000 nM) | Ki (plasmin) | in vivo uptake by bone marrow [2]
6 | G-dV-F—K-cmk [PL 700] | 89.8% | 95.6% | 65.7% | 43.1% | 15.8% | 5.8% | – | – | –
7 | CC(=O)N[C@@H](CC(C)C)C(=O)N[C@@H](CC(C)C)C(=O)N[C@H](C=O)CCCNC(=N)N [leupeptin, Ac-Leu-Leu-Arg-H] | – | – | – | – | – | – | – | ~100 nM | –
8 | CC(C)[C@@H](NC(=O)CNC(=O)CN(CCN(CCN(CC(=O)O)CC(=O)O)CC(=O)O)CC(=O)O)C(=O)N[C@@H](Cc1ccccc1)C(=O)N[C@@H](CCCCN)C(=O)CCl [99mTc-DTPA-G-dVFKcmk, metal not drawn] ({DTPA}-G[dV]FK-CH2Cl) | – | – | – | – | – | – | – | – | high
